Measured values: US10156521B2, “Red fluorescent aldehyde dehydrogenase (ALDH) substrate” (THE JOHNS HOPKINS UNIVERSITY, priority 2013, dated 2018)

Assay: Excitation and emission profiles by spectrofluorophotometer
Assay type: physicochemical
Details: 100% ethanol
Experimental: FIGS. 2a-2c show the excitation and emission profiles of candidate ALDH substrates. (a) AldeRed 493 aldehyde diethyl acetal, (b) AldeRed 588 aldehyde diethyl acetal, (c) AldeRed 659 aldehyde diethyl acetal. All the compounds were dissolved in 100% ethanol and both excitation and emission profiles were measured in 100% ethanol. The emission spectrum was measured with excitation at 493 nm for AldeRed 493 aldehyde diethyl acetal, at 560 nm for AldeRed 588, and at 650 nm for AldeRed 659-A. Blue line: excitation spectrum; red line: emission spectrum;
Reagents and Analyses. BODIPY® 576/589 succinimidyl ester and BODIPY® 650/665 succinimidyl ester were purchased from Life Technologies Inc., (Grand Island, N.Y.). (E)-4-(4-(dimethylamino)styryl)-1-(3-isothiocyanatopropyl)pyridin-1-ium chloride 1 was synthesized analogously to the previously reported di-butyl analog. Hassner, A., et al., J Org. Chem. 49, 2546-2551 (1984). Chemicals and solvents for synthesis and high-performance liquid chromatography (HPLC) were acquired from Sigma-Aldrich (Milwaukee, Wis.) or Fisher Scientific (Pittsburgh, Pa.), and used without further purification. HPLC was performed on an Agilent Prostar System equipped with a 325 Variable wavelength detector and controlled by Galaxie Software using a Phenomenex 4.6×250 mm Luna C18, 10 micron column. AldeRed 493 aldehyde diethyl acetal (FIGS. 14a-14b) and AldeRed 493-A (FIGS. 14c-14d) were chromatographed using Method 1. AldeRed 588 aldehyde diethyl acetal (FIGS. 15a-15b), AldeRed 588-A (FIGS. 15c-15d), AldeRed 659 aldehyde diethyl acetal (FIGS. 16a-16b), AldeRed 659-A (FIGS. 16c-16d) were chromatographed using Method 2. Method 1: Solvent A: 100% water; Solvent B: 100% methanol; 0-5 min 100% A, 5-25 min linear gradient from 100% A to 100% B, 25-30 min 100% B, 30-35 min linear gradient from 100% B to 100% A, 35-38 min 100% A, 2 mL/min. Method 2: Solvent A: 100% water; Solvent B: 100% acetonitrile; 0-20 min linear gradient from 90% A/10% B to 10% A/90% B; 20-25 min 10% A/90% B, 25-30 min linear gradient from 10% A/90% B to 90% A/10% B, 2 mL/min. ^1H-NMR spectra were obtained on a Bruker Avance 400 MHz Spectrometer. High resolution mass spectra were obtained by the University of Notre Dame Mass Spectrometry & Proteomics Facility (Notre Dame, Ind.) using ESI either by direct infusion on a Bruker micrOTOF-II or by LC elution via an ultra-high pressure Dionex® RSLC with C18 column coupled with a Bruker micrOTOF-Q II. The excitation and emission profiles of synthesized products were measured using a spectrofluorophotometer (Shimadzu, RF-5301pc, Columbia, Md.).
Three representative substrates of ALDH containing fluorophores that emit in the red region of the spectrum were synthesized (FIG. 1). […]

Row | SMILES | Maximum emission wavelength [nm] | Maximum excitation wavelength [nm]
1 | CCOC(CNC(=S)NCCC[n+]1ccc(C=Cc2ccc(N(C)C)cc2)cc1)OCC.[Cl-] [compound 4] | 590 | 493
2 | CCOC(CNC(=O)CCc1ccc2n1[B-](F)(F)[N+]1=C(c3ccc[nH]3)C=CC1=C2)OCC [compound 5] | 599 | 588
